Legend:
[1] = tested on: human sebaceous glands (hSGs); experiment: Sebum content in ex-vivo cultured human sebaceous glands (hSGs), lipids normalized to proteins; type: cell-based
From the text: The following examples are intended to show the modulation of sebum production exerted by the experimental preparations on human sebaceous glands (hSGs) microdissected and cultivated up to day 6. At the end of the culture time, the sebum is extracted and quantified from each experimental group of hSGs and then normalized by the proteins extracted from the residual hSG material (mg lipids/mg proteins). As a result, the biological activity of the tested compounds is inferred by comparing the lipids/proteins ratio of the treated glands with that of the control group. A detailed methodology is reported in EP14179936.1 (Cutech Srl) The adopted experimental model is based on the cultivation of ex-vivo hSGs at constant concentrations of valerian extracts or purified derivatives. This experimental condition is not reproducible in vivo since both topical and oral administration produce fluctuating concentrations, depending on the frequency and composition of the treatment. […] The control group was cultured in standard medium, whereas a 5 μM Capsaicin treatment was included in the experimental design as positive control. Capsaicin is an active component of chili peppers suitable to inhibit sebogenesis [Tóth et al., 2009, J. Invest. Derm. 129: 329-339]. The effect of the treatment was evaluated by assessing the amounts of normalized lipids obtained from the treated groups, i.e. the quantitive ratio beween sebum lipids and proteins extracted from each group of hSGs (mg of lipids/mg of proteins), with respect to the value obtained from the control group. The results were expressed in percentage values, assuming the normalized lipids obtained from the control group as reference value (100%).

[2] = tested on: human skin subcutis; experiment: Normalized total lipids in subcutis of ex-vivo cultured full-thickness human skin; type: cell-based; details: for Total lipid content in skin subcutis samples, % ratio of the control group performance (Average): Table 9, abdominal skin, six days of organ culture (five of treatment)
From the text: The reported examples from 19 to 23 are intended to show the modulation of adipocyte lipid content exerted by the experimental preparations on human skin subcutis. Full-thickness ex-vivo human skin samples, including the subcutis, were ex-vivo cultured and treated with compounds obtained from valerian extract, i.e. valerenic acid (VA) and pentanoic acid (AP), in order to evaluate their activity on the lipid metabolism.
The responses of the treated tissues, in comparison to the untreated group, were evaluated after 6 days of culture, by isolating the subcutis of each skin sample and then estimating its normalized content in total lipids.
Cylindrical pieces (7 mm in diameter) of full thickness human skin were excised from an abdominal skin sample paying attention to preserve the subcutis. These organ samples were seeded in 24-well plates at a density of 1 sample/well with 500 μl of culture medium, and cultured up to day 6. The samples submitted to experimental treatments received medium supplemented with VA at 0.5, 5 and 50 μM or PA at 0.2 and 2 μM. After the first day of culture, the samples were arranged in experimental groups including 4 samples each one. The control group received modified William E medium, while the samples submitted to experimental treatments received the same medium supplemented with the extracts. The culture medium was renewed every other day. After six days of organ culture (five of treatment), the subcutis of each skin sample was separated from the dermis and its total content of lipids and proteins was quantified. […] As a result, when lipogenesis is stimulated, an increase in the “total lipids/total proteins ratio”, hereinafter defined “normalized total lipids”, is expected, while the contrary occurs in the case of increased lipolysis.
The analytical protocol adopted to detect values of “normalized total lipids” is described below: • each subcutis sample was homogenized in 1 ml of isopropyl alcohol; • the sample was centrifuged at 14,000 G for 5 minutes and then the supernatant (containing the extracted lipids) was collected; • the supernatant was diluted 10 fold with isopropyl alcohol; • the diluted lipid extract was analysed with a Direct Detect IR Spectrometer (Millipore), which provided the total lipid concentration of the supernatant (mg/ml); • the total lipids of the subcutis sample was quantified multiplying the supernatant lipid concentration (indention 4) by the preliminary dilution factor (indention 3) and then by the volume of isopropyl alcohol used for the lipid extraction (indention 1); • the residual pellet obtained from indention 2 was washed with 1 ml of isopropyl alcohol and, after another centrifugation this solvent was withdrawn; • the pellet was dried in a vacuum dry evaporator and then homogenized in 100 ul of proteolytic buffer (20 mM Tris HCI pH 7.5, 150 mM NaCl, 2 mM EDTA, 0.5% Triton X-100, 2 mM DTT, 1% protease inhibitor cocktail); • the extractive mixture was centrifuged at 14,000 G for 10 minutes and the supernatant was collected and analysed with a Direct Detect IR Spectrometer (Millipore), which provided the total protein concentration of the supernatant (mg/ml); • the obtained total protein concentration was multiplied by the extractive volume (indention 7) in order to quantify the total proteins of the subcutis sample; • the total lipids (indention 5) were divided by the total proteins (indention 9) in order to obtain the amount of lipids per mg of proteins relative to the processed subcutis sample.

[3] = Table 1, scalp sample donor, 6 days culture, 5 μM

Question: Which “reduction of sebum content in the hSGs” value ([1]; Examples 1 to 4 donor, 0.5 μM) does the source give for `CC1=C2[C@H](/C=C(\C)C(=O)O)CC[C@@H](C)[C@H]2CC1` [VA, valerenic acid] here?
Answer: Its value is 26%.

Question: And the “concentration range producing sebogenesis inhibition (very effective)” value ([1]; Examples 5 to 7 donor)?
Answer: Its value is 0.05 to 5 µM.

Question: And the “reduction of sebogenesis (change versus control)” value ([1]; Examples 26 to 27, 0.5 μM)?
Answer: The value was −29%.

Question: And the “Sebum content in hSGs, % ratio of the control group performance (Average)” value (from here on “Sebum content in hSGs, % ratio”) ([1]; Table 1, scalp sample donor, 6 days culture, 0.05 μM)?
Answer: The value was 98.9%.

Question: And the “Sebum content in hSGs, % ratio” value ([1]; Table 1, scalp sample donor, 6 days culture, 0.5 μM)?
Answer: Its value is 74.2%.

Question: And the “Sebum content in hSGs, % ratio” value [1, 3]?
Answer: The value was 88.0%.

Question: And the “Sebum content in hSGs, % ratio” value ([1]; Table 1, scalp sample donor, 6 days culture, 50 μM)?
Answer: The value was 88.6%.

Question: What about the “Sebum content in hSGs, % ratio” value ([1]; Table 2, another donor, 0.05 μM) of the same compound?
Answer: Its value is 85.6%.

Question: And the “Sebum content in hSGs, % ratio” value ([1]; Table 2, another donor, 0.5 μM)?
Answer: Its value is 61.2%.

Question: And the “Sebum content in hSGs, % ratio” value ([1]; Table 2, another donor, 5 μM)?
Answer: The value was 88.5%.

Question: And the “Sebum content in hSGs, % ratio” value ([1]; Table 3, another donor, 0.05 μM)?
Answer: Its value is 75.0%.

Question: And the “Sebum content in hSGs, % ratio” value ([1]; Table 3, another donor, 0.5 μM)?
Answer: The value was 89.0%.

Question: What about the “Sebum content in hSGs, % ratio” value ([1]; Table 4, another donor, 0.05 μM) of the same compound?
Answer: The value was 54.1%.

Question: What about the “Sebum content in hSGs, % ratio” value ([1]; Table 4, another donor, 0.5 μM) of the same compound?
Answer: Its value is 63.9%.

Question: And the “Sebum content in hSGs, % ratio” value ([1]; Table 6, same donor, 0.05 μM)?
Answer: Its value is 41.4%.

Question: And the “Sebum content in hSGs, % ratio” value ([1]; Table 6, same donor, 0.5 μM)?
Answer: Its value is 50.4%.

Question: What about the “Sebum content in hSGs, % ratio” value ([1]; Table 6, same donor, 5 μM) of the same compound?
Answer: The value was 70.7%.

Question: And the “Sebum content in hSGs, % ratio” value ([1]; Table 8, 0.5 μM)?
Answer: The value was 71.4%.

Question: And the “response of lipid content in the skin subcutis versus control” value ([2]; 5.0 μM)?
Answer: The value was −44.7%.

Question: What about the “Total lipid content in skin subcutis samples, % ratio of the control group performance (Average)” value ([2]; 0.5 μM) of the same compound?
Answer: Its value is 63.9%.

Question: What about the “Total lipid content in skin subcutis samples, % ratio of the control group performance (Average)” value ([2]; 5 μM) of the same compound?
Answer: The value was 55.3%.

Question: What about the “Total lipid content in skin subcutis samples, % ratio of the control group performance (Average)” value ([2]; 50.0 μM) of the same compound?
Answer: The value was 59.0%.

Question: Which results are given for `COc1cc(CNC(=O)CCCC/C=C/C(C)C)ccc1O` [Capsaicin, reference compound]?
Answer: reduction of sebum content of the hSGs in comparison with the control group ([1]; Examples 1 to 4 donor, positive control 5 μM): 17%; reduction of hSGs sebum content in comparison with the control group ([1]; Examples 5 to 7 donor, positive control 5 μM): 10%; response of sebum production versus control ([1]; Examples 22 to 25, positive control 5 μM): −17%; Sebum content in hSGs, % ratio of the control group performance (Average) [1, 3]: 83.3%; Sebum content in hSGs, % ratio of the control group performance (Average) ([1]; Table 2, another donor, 5 μM): 90.2%; Sebum content in hSGs, % ratio of the control group performance (Average) ([1]; Table 4, another donor, 5 μM): 37.2%; Sebum content in hSGs, % ratio of the control group performance (Average) ([1]; Table 5, 5 μM): 45.6%; Sebum content in hSGs, % ratio of the control group performance (Average) ([1]; Table 6, same donor, 5 μM): 59.2%; Sebum content in hSGs, % ratio of the control group performance (Average) ([1]; Table 7, 5 μM): 83.0%; Total lipid content in skin subcutis samples, % ratio of the control group performance (Average) ([2]; 5 μM): 73.6%

Question: What does the source list for `CCCCC(=O)O` [PA, pentanoic acid]?
Answer: Sebum content in hSGs, % ratio of the control group performance (Average) ([1]; Table 5, 0.2 mM): 57.3%; Sebum content in hSGs, % ratio of the control group performance (Average) ([1]; Table 5, 2 mM): 65.6%; Sebum content in hSGs, % ratio of the control group performance (Average) ([1]; Table 6, same donor, 0.02 mM): 62.5%; Sebum content in hSGs, % ratio of the control group performance (Average) ([1]; Table 6, same donor, 0.2 mM): 60.9%; Sebum content in hSGs, % ratio of the control group performance (Average) ([1]; Table 6, same donor, 2.0 mM): 75.4%; Total lipid content in skin subcutis samples, % ratio of the control group performance (Average) ([2]; 0.2 μM): 82.6%; Total lipid content in skin subcutis samples, % ratio of the control group performance (Average) ([2]; 2.0 μM): 91.6%; reduction in total lipid content of skin subcutis ([2]; concentration not given): 17.8%

Source: patent publication US10391071B2, “Compositions comprising valerian extracts” (Cutech SRL, priority 2015, dated 2019)
